How the values were obtained:
[1] = biological target: Substance-K receptor (Homo sapiens) (UniProt P21452); test: Binding affinity to recombinant human NK2 receptor at 10 uM after 60 mins by scintillation counting analysis relative to control
[2] = biological target: D(2) dopamine receptor (Homo sapiens) (UniProt P14416); test: Binding affinity to recombinant human dopamine receptor D2S at 10 uM after 60 mins by scintillation counting analysis relative to control
[3] = biological target: Substance-P receptor (Homo sapiens) (UniProt P25103); test: Binding affinity to human NK1 receptor at 10 uM after 30 mins by scintillation counting analysis relative to control
[4] = biological target: 3',5'-cyclic-AMP phosphodiesterase 4D (Homo sapiens) (UniProt Q08499); test: Binding affinity to recombinant human PDE4D2 at 10 uM after 20 mins by scintillation counting analysis relative to control
[5] = biological target: NAD-dependent protein deacetylase sirtuin-1 (Homo sapiens) (UniProt Q96EB6); test: Binding affinity to surtuin-1 (unknown origin) at 10 uM by relative to control
[6] = biological target: Beta-2 adrenergic receptor (Homo sapiens) (UniProt P07550); test: Binding affinity to recombinant human beta2 receptor at 10 uM after 120 mins by scintillation counting analysis relative to control
[7] = biological target: D(1B) dopamine receptor (Homo sapiens) (UniProt P21918); test: Binding affinity to recombinant human dopamine receptor D5 at 10 uM after 60 mins by scintillation counting analysis relative to control
[8] = biological target: Neuropeptide Y receptor type 2 (Homo sapiens) (UniProt P49146); test: Binding affinity to human Y2 receptor at 10 uM after 60 mins by scintillation counting analysis relative to control
[9] = biological target: Sodium-dependent dopamine transporter (Homo sapiens) (UniProt Q01959); test: Binding affinity to dopamine transporter (unknown origin) at 10 uM relative to control
CHO-K1 = test: Genotoxicity in CHOK1 cells in absence of rat liver S9 fraction by fluorescence imaging based micronucleus assay; assay type: toxicity, cell-based, Cricetulus griseus; conditions: chinese hamster
[10] = biological target: Neuropeptide Y receptor type 1 (Homo sapiens) (UniProt P25929); test: Binding affinity to human Y1 receptor at 10 uM after 120 mins by scintillation counting analysis relative to control
[11] = biological target: Histone deacetylase 4 (Homo sapiens) (UniProt P56524); test: Binding affinity to recombinant human HDAC4 at 10 uM after 30 mins by fluorescence analysis relative to control
Homo sapiens [12] = organism: Homo sapiens; test: Binding affinity to delta-2-opioid receptor (unknown origin) at 10 uM relative to control
[13] = biological target: Cannabinoid receptor 1 (Homo sapiens) (UniProt P21554); test: Binding affinity to recombinant human CB1 at 10 uM after 120 mins by scintillation counting analysis relative to control
[14] = biological target: Histone deacetylase 11 (Homo sapiens) (UniProt Q96DB2); test: Binding affinity to recombinant human HDAC11 at 10 uM after 30 mins by fluorescence analysis relative to control
[15] = biological target: C-C chemokine receptor type 1 (Homo sapiens) (UniProt P32246); test: Binding affinity to recombinant human CCR1 receptor at 10 uM after 120 mins by scintillation counting analysis relative to control
[16] = biological target: Mu-type opioid receptor (Homo sapiens) (UniProt P35372); test: Binding affinity to recombinant human mu opioid receptor at 10 uM after 120 mins by scintillation counting analysis relative to control
Salmonella typhimurium [17] = test: Mutagenicity in Salmonella typhimurium TA98 in absence of rat liver S9 fraction by Ames test; assay type: toxicity, organism-based; conditions: salmonella enterica subsp. enterica serovar typhimurium
[18] = biological target: Adenosine receptor A1 (Homo sapiens) (UniProt P30542); test: Binding affinity to recombinant human A1 receptor at 10 uM after 60 mins by scintillation counting analysis relative to control
[19] = biological target: Cathepsin D (Homo sapiens) (UniProt P07339); test: Binding affinity to human cathepsin D at 10 uM after 30 mins by fluorescence assay relative to control
[20] = biological target: Estrogen receptor (Homo sapiens) (UniProt P03372); test: Binding affinity to human ER at 10 uM after 1200 mins by scintillation counting analysis relative to control
[21] = biological target: NAD-dependent protein deacetylase sirtuin-2 (Homo sapiens) (UniProt Q8IXJ6); test: Binding affinity to surtuin-2 (unknown origin) at 10 uM by relative to control
Homo sapiens [22] = organism: Homo sapiens; test: Binding affinity to P2X receptor (unknown origin) at 10 uM relative to control
[23] = biological target: 5-hydroxytryptamine receptor 3A (Homo sapiens) (UniProt P46098); test: Binding affinity to recombinant human 5-HT3 receptor at 10 uM after 120 mins by scintillation counting analysis relative to control
[24] = biological target: cGMP-dependent 3',5'-cyclic phosphodiesterase (Homo sapiens) (UniProt O00408); test: Binding affinity to recombinant human PDE2A1 at 10 uM after 20 mins by scintillation counting analysis relative to control
[25] = biological target: Adrenergic receptor alpha-2 (Homo sapiens) (UniProt P08913+P18825+P18089); test: Binding affinity to alpha2 receptor (unknown origin) at 10 uM relative to control; assay type: protein assay
[26] = biological target: Melatonin receptor type 1A (Homo sapiens) (UniProt P48039); test: Binding affinity to recombinant human MT1 receptor at 10 uM after 240 mins by scintillation counting analysis relative to control
[27] = biological target: Glucocorticoid receptor (Homo sapiens) (UniProt P04150); test: Binding affinity to human GR at 10 uM after 360 mins by scintillation counting analysis relative to control
MAO-A = MAO-A (Homo sapiens, UniProt P21397); test: Binding affinity to human MAO-A at 10 uM after 20 mins by spectrophotometric analysis relative to control; conditions: read-out: Activity
[28] = biological target: Histamine H1 receptor (Homo sapiens) (UniProt P35367); test: Binding affinity to recombinant human histamine H1 receptor at 10 uM after 60 mins by scintillation counting analysis relative to control
[29] = biological target: Nitric oxide synthase, inducible (Mus musculus) (UniProt P29477); test: Binding affinity to recombinant mouse iNOS at 10 uM after 120 mins by spectrophotometric analysis relative to control
Salmonella typhimurium [30] = test: Mutagenicity in Salmonella typhimurium TA100 in absence of rat liver S9 fraction by Ames test; assay type: toxicity, organism-based; conditions: salmonella enterica subsp. enterica serovar typhimurium
[31] = biological target: Type-1 angiotensin II receptor (Homo sapiens) (UniProt P30556); test: Binding affinity to recombinant human AT1 receptor at 10 uM after 120 mins by scintillation counting analysis relative to control
[32] = biological target: cGMP-inhibited 3',5'-cyclic phosphodiesterase 3A (Homo sapiens) (UniProt Q14432); test: Binding affinity to recombinant human PDE3A at 10 uM after 20 mins by scintillation counting analysis relative to control
[33] = biological target: 5-hydroxytryptamine receptor 1A (Homo sapiens) (UniProt P08908); test: Binding affinity to recombinant human 5-HT1A receptor at 10 uM after 60 mins by scintillation counting analysis relative to control
[34] = biological target: Platelet-derived growth factor receptor (Mus musculus) (UniProt P05622+P26618); test: Binding affinity to mouse PDGFR at 10 uM after 180 mins by scintillation counting analysis relative to control; assay type: protein-complex assay

Chain of MAO-A (P21397 whole entry): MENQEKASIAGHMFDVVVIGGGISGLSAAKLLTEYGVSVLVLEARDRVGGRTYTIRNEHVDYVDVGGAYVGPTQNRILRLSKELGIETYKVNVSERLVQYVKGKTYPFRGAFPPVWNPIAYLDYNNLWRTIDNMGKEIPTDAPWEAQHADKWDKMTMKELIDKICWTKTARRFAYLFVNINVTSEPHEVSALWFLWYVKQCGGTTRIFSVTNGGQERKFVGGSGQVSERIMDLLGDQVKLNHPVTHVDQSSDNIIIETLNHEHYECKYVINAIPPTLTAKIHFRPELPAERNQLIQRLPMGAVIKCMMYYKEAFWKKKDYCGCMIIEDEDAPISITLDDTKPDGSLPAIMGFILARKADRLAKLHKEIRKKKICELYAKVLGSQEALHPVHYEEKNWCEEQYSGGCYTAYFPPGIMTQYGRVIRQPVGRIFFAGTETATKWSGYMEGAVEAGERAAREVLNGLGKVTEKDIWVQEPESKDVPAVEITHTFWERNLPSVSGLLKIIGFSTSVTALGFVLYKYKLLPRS
Chain of Nitric oxide synthase, inducible (Mus musculus) (P29477 whole entry): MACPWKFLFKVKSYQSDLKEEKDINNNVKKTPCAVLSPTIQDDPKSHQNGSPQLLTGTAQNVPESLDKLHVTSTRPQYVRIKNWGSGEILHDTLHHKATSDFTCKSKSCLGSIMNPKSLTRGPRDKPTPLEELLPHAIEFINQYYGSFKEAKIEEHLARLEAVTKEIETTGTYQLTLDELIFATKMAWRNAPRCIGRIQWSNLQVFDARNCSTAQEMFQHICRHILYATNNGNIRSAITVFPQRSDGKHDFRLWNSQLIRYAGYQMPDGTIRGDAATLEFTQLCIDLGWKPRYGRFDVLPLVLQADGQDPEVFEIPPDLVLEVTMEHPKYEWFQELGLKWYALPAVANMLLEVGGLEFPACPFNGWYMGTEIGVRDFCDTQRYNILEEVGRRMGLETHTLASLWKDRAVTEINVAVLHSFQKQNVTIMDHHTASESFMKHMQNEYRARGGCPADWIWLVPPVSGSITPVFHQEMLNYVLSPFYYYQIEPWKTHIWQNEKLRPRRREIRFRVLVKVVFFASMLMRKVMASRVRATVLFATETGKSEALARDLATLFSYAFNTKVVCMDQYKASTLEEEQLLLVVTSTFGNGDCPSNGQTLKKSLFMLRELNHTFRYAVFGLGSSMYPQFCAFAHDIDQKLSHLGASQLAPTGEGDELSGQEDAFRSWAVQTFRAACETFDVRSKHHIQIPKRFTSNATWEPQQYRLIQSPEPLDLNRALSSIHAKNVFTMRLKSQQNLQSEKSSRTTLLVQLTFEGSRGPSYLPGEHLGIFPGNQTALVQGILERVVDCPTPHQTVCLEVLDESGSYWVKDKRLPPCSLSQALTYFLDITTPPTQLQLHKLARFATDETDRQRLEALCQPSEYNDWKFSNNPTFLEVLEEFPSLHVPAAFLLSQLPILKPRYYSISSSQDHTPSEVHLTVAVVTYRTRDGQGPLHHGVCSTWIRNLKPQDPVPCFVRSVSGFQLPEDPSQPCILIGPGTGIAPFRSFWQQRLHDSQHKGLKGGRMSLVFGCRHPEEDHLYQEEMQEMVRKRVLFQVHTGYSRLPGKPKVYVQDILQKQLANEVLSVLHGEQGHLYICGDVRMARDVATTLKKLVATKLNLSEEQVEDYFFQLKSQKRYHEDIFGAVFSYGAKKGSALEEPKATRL
Chain of cGMP-inhibited 3',5'-cyclic phosphodiesterase 3A (Homo sapiens) (Q14432 whole entry): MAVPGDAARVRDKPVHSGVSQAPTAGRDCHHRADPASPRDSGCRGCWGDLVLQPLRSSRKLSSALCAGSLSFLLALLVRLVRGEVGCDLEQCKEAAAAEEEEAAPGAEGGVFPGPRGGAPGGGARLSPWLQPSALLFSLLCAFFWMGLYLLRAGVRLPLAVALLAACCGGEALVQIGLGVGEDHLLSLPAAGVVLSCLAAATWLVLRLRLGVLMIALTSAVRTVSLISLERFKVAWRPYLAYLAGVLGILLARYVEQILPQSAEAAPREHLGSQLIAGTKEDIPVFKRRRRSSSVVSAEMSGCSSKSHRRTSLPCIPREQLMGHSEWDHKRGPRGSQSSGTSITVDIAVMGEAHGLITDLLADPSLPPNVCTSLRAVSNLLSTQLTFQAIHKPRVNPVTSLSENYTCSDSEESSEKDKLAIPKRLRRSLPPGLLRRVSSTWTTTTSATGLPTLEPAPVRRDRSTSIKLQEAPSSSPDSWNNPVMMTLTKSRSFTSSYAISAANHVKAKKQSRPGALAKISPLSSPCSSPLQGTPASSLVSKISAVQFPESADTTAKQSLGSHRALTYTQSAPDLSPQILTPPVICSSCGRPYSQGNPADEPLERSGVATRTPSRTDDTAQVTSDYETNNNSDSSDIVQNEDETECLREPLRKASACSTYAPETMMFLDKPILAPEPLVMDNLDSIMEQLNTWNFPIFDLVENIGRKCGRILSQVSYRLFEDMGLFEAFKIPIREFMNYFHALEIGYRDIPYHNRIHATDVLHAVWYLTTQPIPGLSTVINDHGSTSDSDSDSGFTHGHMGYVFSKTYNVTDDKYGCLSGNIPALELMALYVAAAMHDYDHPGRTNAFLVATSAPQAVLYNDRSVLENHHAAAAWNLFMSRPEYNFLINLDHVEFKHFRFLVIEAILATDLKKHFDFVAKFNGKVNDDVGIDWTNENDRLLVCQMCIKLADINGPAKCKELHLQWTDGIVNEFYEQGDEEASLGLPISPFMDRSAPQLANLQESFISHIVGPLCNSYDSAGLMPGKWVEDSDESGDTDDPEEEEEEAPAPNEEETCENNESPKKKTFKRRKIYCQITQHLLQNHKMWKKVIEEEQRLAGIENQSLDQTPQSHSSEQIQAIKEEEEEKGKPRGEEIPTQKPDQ
Chain of Type-1 angiotensin II receptor (Homo sapiens) (P30556 whole entry): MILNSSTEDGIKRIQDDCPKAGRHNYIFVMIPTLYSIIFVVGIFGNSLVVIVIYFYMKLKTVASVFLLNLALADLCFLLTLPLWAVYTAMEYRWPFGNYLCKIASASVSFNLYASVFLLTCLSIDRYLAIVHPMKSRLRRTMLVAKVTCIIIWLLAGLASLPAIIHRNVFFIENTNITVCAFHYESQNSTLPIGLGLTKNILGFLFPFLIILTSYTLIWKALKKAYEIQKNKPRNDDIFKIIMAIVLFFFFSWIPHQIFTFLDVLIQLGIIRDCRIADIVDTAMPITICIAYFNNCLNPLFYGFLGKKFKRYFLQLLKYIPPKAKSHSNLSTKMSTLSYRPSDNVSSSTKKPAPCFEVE
Chain of Histone deacetylase 11 (Homo sapiens) (Q96DB2 whole entry): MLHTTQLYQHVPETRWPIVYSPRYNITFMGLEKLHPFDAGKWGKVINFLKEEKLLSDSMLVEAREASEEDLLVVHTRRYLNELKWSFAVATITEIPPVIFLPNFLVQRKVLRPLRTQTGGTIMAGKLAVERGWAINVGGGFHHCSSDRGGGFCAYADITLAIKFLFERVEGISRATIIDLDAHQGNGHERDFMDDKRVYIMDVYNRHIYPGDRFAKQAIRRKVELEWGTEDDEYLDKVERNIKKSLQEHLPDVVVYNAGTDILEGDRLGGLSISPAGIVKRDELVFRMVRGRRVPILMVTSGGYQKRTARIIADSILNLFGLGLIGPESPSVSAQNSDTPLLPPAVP
Chain of Neuropeptide Y receptor type 2 (Homo sapiens) (P49146 whole entry): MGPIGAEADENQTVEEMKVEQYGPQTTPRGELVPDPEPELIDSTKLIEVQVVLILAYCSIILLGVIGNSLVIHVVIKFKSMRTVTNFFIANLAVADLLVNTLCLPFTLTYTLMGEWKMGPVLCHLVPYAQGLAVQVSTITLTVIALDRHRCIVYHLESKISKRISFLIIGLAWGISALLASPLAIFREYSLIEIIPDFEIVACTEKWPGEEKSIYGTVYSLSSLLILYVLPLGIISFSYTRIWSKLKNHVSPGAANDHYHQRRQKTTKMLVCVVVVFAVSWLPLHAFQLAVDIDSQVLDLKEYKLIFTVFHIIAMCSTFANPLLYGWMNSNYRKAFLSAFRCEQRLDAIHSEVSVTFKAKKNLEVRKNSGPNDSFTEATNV
Chain of cGMP-dependent 3',5'-cyclic phosphodiesterase (Homo sapiens) (O00408 whole entry): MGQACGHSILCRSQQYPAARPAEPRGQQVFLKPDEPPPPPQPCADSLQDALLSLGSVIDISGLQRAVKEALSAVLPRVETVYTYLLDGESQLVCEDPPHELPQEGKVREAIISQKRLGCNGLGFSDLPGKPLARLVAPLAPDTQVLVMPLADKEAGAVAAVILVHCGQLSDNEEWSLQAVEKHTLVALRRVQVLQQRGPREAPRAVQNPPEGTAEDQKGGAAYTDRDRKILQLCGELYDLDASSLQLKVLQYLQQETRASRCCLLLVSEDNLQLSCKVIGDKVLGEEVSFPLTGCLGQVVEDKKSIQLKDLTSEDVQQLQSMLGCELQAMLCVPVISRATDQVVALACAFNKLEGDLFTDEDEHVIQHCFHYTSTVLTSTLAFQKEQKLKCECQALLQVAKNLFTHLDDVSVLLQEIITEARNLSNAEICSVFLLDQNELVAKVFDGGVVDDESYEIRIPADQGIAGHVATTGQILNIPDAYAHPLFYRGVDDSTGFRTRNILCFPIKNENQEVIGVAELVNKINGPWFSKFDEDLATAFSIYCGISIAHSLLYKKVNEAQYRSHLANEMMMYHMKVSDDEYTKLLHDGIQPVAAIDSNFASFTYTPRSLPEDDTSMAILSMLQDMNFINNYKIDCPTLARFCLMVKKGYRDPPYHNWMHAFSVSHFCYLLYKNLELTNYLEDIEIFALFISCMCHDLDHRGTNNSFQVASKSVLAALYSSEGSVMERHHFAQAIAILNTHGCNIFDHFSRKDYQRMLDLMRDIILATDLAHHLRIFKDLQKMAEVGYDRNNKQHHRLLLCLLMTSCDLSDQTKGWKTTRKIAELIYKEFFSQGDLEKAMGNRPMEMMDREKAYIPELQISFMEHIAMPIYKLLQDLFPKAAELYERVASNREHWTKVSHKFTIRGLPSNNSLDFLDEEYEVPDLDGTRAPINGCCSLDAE

CCOc1c(Cl)cc(C(=O)Nc2ccc(C(=O)O)c(C)c2)cc1OC(C)C
Activity [1]: < 25%
Activity [2]: < 25%
Activity [3]: < 25%
Activity [4]: < 25%
Activity [5]: < 25%
Activity [6]: < 25%
Activity [7]: < 25%
Activity [8]: < 25%
Activity [9]: < 25%
Activity (CHO-K1): Non-Toxic
Activity [10]: < 25%
Activity [11]: < 25%
Activity (Homo sapiens [12]): < 25%
Activity [13]: < 25%
Activity [14]: < 25%
Activity [15]: < 25%
Activity [16]: < 25%
Activity (Salmonella typhimurium [17]): Non-Toxic
Activity [18]: < 25%
Activity [19]: < 25%
Activity [20]: < 25%
Activity [21]: < 25%
Activity (Homo sapiens [22]): < 25%
Activity [23]: < 25%
Activity [24]: < 25%
Activity [25]: < 25%
Activity [26]: < 25%
Activity [27]: < 25%
activity at 20 min, 10 µM (MAO-A): ≤ 25%
Activity [28]: < 25%
Activity [29]: < 25%
Activity (Salmonella typhimurium [30]): Non-Toxic
Activity [31]: < 25%
Activity [32]: < 25%
Activity [33]: < 25%
Activity [34]: < 25%

Source: ChEMBL document CHEMBL4184197 (Bioorg Med Chem, 2018)
